Where two headings read alike, the source gives them in different places.
Legend:
[1] = system: OVCAR-3 ovarian carcinoma cells; settings: cited from earlier work
MCF-7/MITOX cells = settings: cited from earlier work
8226/S myeloma cells = assay: MTT growth inhibition, parental 8226 myeloma cells; assay type: cell-based, human; settings: Homo sapiens, read-out: IC50
Description: (§1) Microculture Tetrazolium (MTT) Assay for Tumor Cells
(§2) Tumors are disaggregated into single cell suspensions using mechanical, hypoosmotic, and/or enzymatic (trypsin) methods. The cells are plated at a concentration of 3-5×10^4 per […] well into plastic 96-well plates. Growth medium containing 5-10% (vol/vol) heat-inactivated fetal bovine serum and penicillin/streptomycin (both […]) are added prior to incubation at 37° C. for 6 days. Afterwards the medium containing the drug is removed, the cells are centrifuged in fresh medium or phosphate-buffered saline (pH 7.4). A tetrazolium dye, […]-2,5-diphenyl tetrazolium (MTT), is then added. (Mossman, T., J Immunol 65:55-63, 1983.) This dye forms a colored formazan product upon activation by mitochondrial reductases in viable cells. Typically, the formazan product is solubilized in acid-propanol or DMSO. The intensity of the color is proportional to viable cell numbers and this is quantitated by spectrophotometric absorbance at 570 nm on a micro ELISA plate reader. The results are calibrated in % control absorbance from untreated tumor cells. (Alley, et al., Cancer Res 48:589-601, 1988.)
(§3) The following unpublished studies were performed in vitro to develop and characterize a human myeloma cell line with resistance to imexon-induced cytotoxicity. The original (parental) 8226 cell line was developed by Matsuoka, et al. (Matsuoka, et al., Proc Soc Exp Biol Med 125:1246-1250, 1967). It is a lymphoblastoid cell line which stains for lambda light immunoglobulin production. It grows in vitro in suspension culture (non-adherent) and forms tumors when injected into SCID mice. (Skehan, et al., J Natl Cancer Inst 82:1107-1112, 1990.)
(§4) One exciting feature of our novel compounds is, that they work on imexon-resistant cells. An imexon-resistant 8226 myeloma cell line was selected by continuously exposing cells to gradually increasing concentrations of imexon up to 3.25 mg/mL. This cell line has slightly longer cell doubling time than 8226 sensitive cells (24 vs 20 hours). […] The dose response curve for imexon continuous exposure was determined using MTT assay. Each data point represents the mean of three experiments performed in 8 replicates.
(§5) We compared IC50 concentrations and there is a 4-fold resistance observed for the 8226/I-R cell line when the cells were continuously exposed to imexon for […] at 37° C. The degree of resistance was relatively unstable in the absence of the drug, with the resistant cells losing substantial resistance when maintained in imexon-free medium for 20 weeks (FIG. 2).
(§6) IC50 was measured by MTT assay. IC50 refer to the concentration by drug that results in 50% growth inhibition. A minimum of 2 assays were performed for each drug following 250 mg/mL imexon is equivalent to 6.5 cGy radiation in sensitive cells.
(§7) Using the colorimetric microculture tetrazolium (MTT) assay, imexon and 25-related analogs were studied for tumor growth inhibition in vitro. Imexon-induced DNA single strand breaks were assessed by alkaline elution. Cells were exposed to imexon for 1 hour prior to start of experiment. The fraction of ^14 C-labeled DNA retained on the filter is plotted against the time of elution. The cells included parental 8226 myeloma cells and the 8226 imexon-resistant cells exposed to drug (imexon or analog) continuously for 10 days at 37° C. At the end of the exposure period, the cells were analyzed for viability using the formazan-forming tetrazolium dye (MTT) assay.

WiDr MITOX cells = settings: cited from earlier work
MCF-7/ADR cells = settings: cited from earlier work
[2] = system: L-1210 MDR leukemia cells; settings: cited from earlier work
8226/I-R myeloma cells = assay: MTT growth inhibition, imexon-resistant 8226 myeloma cells; assay type: cell-based, human; settings: for IC50: Homo sapiens, read-out: IC50; for Fold Resistance (IC50 resistant cells/IC50 sensitive cells): Table 4, 8226/I-R vs 8226/S
Description: as §1, §2, §3, §4, §5, §6, §7

[3] = system: human lymphoma, melanoma, and prostate cancer cell lines; settings: cited from earlier work
transplanted tumors = settings: rodents; cited from earlier work
[4] = cited from earlier work
[5] = system: multiple myeloma (clonogenic assay); settings: cited from earlier work
human tumor cell lines = settings: in culture; cited from earlier work
[6] = system: DNA of 8226 myeloma cells; assay: Imexon-induced DNA single strand breaks by alkaline elution; assay type: cell-based, human; settings: for DNA single strand breaks: 8226 cells, 10-500 μg/mL
Description: as §7
These strand breaks are noted by an enhanced rate of ^14 C-DNA elution through the filters after a one-hour exposure to imexon (10-500 μg/mL) at 30° C. At high imexon concentrations of≥100 μg/mL, over 75% of the radiolabeled DNA is eluted through the filters over the test period. By comparison, control cell DNA is highly retained (>95%) on the filter over the same 24-hour elution period.

Oral activity in mice = assay type: in vivo
[7] = background statement; cited from earlier work
[8] = system: AIDS-related lymphoma / lymphoma cells; assay: Activity against lymphoma cells in vitro; assay type: cell-based; settings: Table 1B
Myelosuppression = settings: in vivo
[9] = system: advanced solid tumors in cancer patients; settings: cited from earlier work; for Clinical response: Phase I clinical trials
[10] = system: human prostate cancer tumors; assay: Activity in prostate cancer in SCID mouse model; assay type: in vivo, human tumors in SCID mice; settings: Table 1B
mast cell tumors = settings: cited from earlier work
[11] = Tolerability and activity on prolonged dosing in tumor-bearing mice and dogs; assay type: in vivo; settings: suggested by prior studies in mice and dogs
MCF-7/D40 cells = settings: MCF-7/DOX40; cited from earlier work

COc1cccc2c1C(=O)c1c(O)c3c(c(O)c1C2=O)C[C@@](O)(C(=O)CO)C[C@@H]3O[C@H]1C[C@H](N)[C@H](O)[C@H](C)O1 [Doxorubicin]
Resistance of OVCAR-3 [1]: resistant in vitro to clinically relevant concentrations | Resistance of MCF-7/MITOX (MCF-7/MITOX cells): only partially resistant | IC50 (8226/S myeloma cells; 8226/S, MTT): 0.00043 µM | Fold resistance of WiDr MITOX cells (WiDr MITOX cells): 8 fold | Decrease in sensitivity to doxorubicin (MCF-7/ADR cells): 192 fold | Cross-resistance of L-1210 MDR [2]: cross-resistant | Cross-resistance of imexon-resistant cells (8226/I-R myeloma cells; 8226 imexon-resistant cells, MTT): remains sensitive | IC50 (8226/I-R myeloma cells; 8226/I-R, MTT): 0.00032 µM | Fold Resistance (IC50 resistant cells/IC50 sensitive cells) (8226/I-R myeloma cells): 0.79

N=C1NC(=O)N2CC12 (stereo not shown) [AMP 400, 4-imino-1,3-diazabicyclo[3.1.0]hexan-2-one]
Activity against human tumor cell lines in SCID mice [3]: active against human lymphoma, melanoma, and prostate cancer cell lines in SCID mice | Activity against transplanted tumors (transplanted tumors): active against a variety of transplanted tumors in rodents | Tolerability ([4]; Phase I, Europe, 1985): well tolerated | Nausea (mild, transient) ([4]; patients): 13% | Vomiting ([4]; patients): 23% | Cytotoxicity to multiple myeloma [5]: selectively cytotoxic to multiple myeloma in the clonogenic assay | Activity against human tumor cell lines (human tumor cell lines): active against a variety of human tumor cell lines in culture | DNA single strand breaks ([6]; one-hour exposure, listed as Imexon): induced single strand breaks in both 8226 imexon-sensitive and resistant cells | DNA single strand breaks ([6]; one-hour exposure, listed as imexon): induces concentration-dependent single-stranded breaks in tumor cell DNA | DNA strand breaks, resistant vs sensitive cells ([6]; given dose of imexon, p<0.05): fewer strand breaks in imexon-resistant cells than in sensitive cells | Radiolabeled DNA eluted over the test period ([6]; imexon ≥100 μg/mL, one-hour exposure): over 75% | Radiation equivalent of 250 mg/mL imexon ([6]; sensitive cells, 250 μg/mL imexon): 6.5 cGy | Oral activity (Oral activity in mice): not active orally in mice | Myelosuppression [7]: not myelosuppressive | IC50 (8226/S myeloma cells; 8226/S, MTT): 27 µM | IC50 (8226/S myeloma cells; Table 5, Sensitive (parental) 8226): 1 µg/mL | Activity in lymphoma in vitro [8]: active in vitro | Myelosuppression (Myelosuppression): has not demonstrated myelosuppressive toxicity | Clinical response ([9]; listed as Imexon): produced objective responses or stabilized neoplastic diseases in cancer patients | Clinical response ([9]; listed as parent compound): parent compound | Additional patients with disease stabilization ([9]; advanced tumors): 8 patients | Duration of disease stabilization ([9]; advanced tumors): 4-24 months | Objective responses, evaluable patients ([9]; breast cancer): 1/7 | Duration of complete disappearance of measurable disease ([9]; lung cancer): 33 months | Objective responses, evaluable patients ([9]; lung cancer): 1/7 | Duration of complete disappearance of measurable disease ([9]; melanoma): 42 months | Objective responses, evaluable patients ([9]; melanoma): 1/7 | Stable disease, number of patients ([9]; one NSCLC, four breast cancer, one liver cancer): 6 patients | Duration of complete remission ([9]; one patient, metastatic NSCLC): over 14 years | Activity in prostate cancer [10]: active in | Objective responses in dogs (mast cell tumors): Objective responses were observed in dogs with mast cell tumors | IC50 (8226/I-R myeloma cells; 8226/I-R, MTT): 120 µM | IC50 (8226/I-R myeloma cells; Table 5, imexon-resistant 8226): 8.5 µg/mL | Fold Resistance (IC50 resistant cells/IC50 sensitive cells) (8226/I-R myeloma cells): 4.44 | Fold Resistance of IC50 R/IC50 's (8226/I-R myeloma cells; Table 5, imexon-resistant vs sensitive 8226): 4.5 | Fold resistance (8226/I-R myeloma cells; continuous exposure for 5 days at 37° C): 4 fold | Maximally-tolerated human dose [11]: approximately 500 mg/m^2 /day

COc1ccc(CCN(C)CCCC(C#N)(c2ccc(OC)c(OC)c2)C(C)C)cc1OC (stereo not shown) [verapamil]
Reversal of resistance (MCF-7/D40 cells): sensitized (resistance reversed) | Reversal of resistance (MCF-7/MITOX cells): resistance is not modulated (reversed) | Reversal of resistance [2]: resistance can be reversed

From patent US6297230A, “Cyanoaziridines for treating cancer” (priority 2000, dated 2001)
